Measured values as given in PubChem BioAssay (NCI).
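Method: 48-hour compound exposure of cells in 96-well plates, five concentrations, linear interpolation of endpoints. GI50 = concentration required for 50% inhibition of growth. TGI is the concentration that stops growth completely.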

What was measured:
Assay in all cases: NCI-60 cell line screen, 48 h
COLO 205 colon = system: COLO 205 colon
RXF 393 renal = system: RXF 393 renal
CAKI-1 renal = system: CAKI-1 renal
DMS 273 small cell lung = system: DMS 273 small cell lung
UACC-62 melanoma = system: UACC-62 melanoma
SF-295 CNS = system: SF-295 CNS
LXFL 529 NSCLC = system: LXFL 529 NSCLC
KM12 colon = system: KM12 colon
MALME-3M melanoma = system: MALME-3M melanoma
HT29 colon = system: HT29 colon
A549 NSCLC = system: A549 NSCLC
RPMI-8226 leukemia = system: RPMI-8226 leukemia
IGROV1 ovarian = system: IGROV1 ovarian
HL-60(TB) leukemia = system: HL-60(TB) leukemia
OVCAR-4 ovarian = system: OVCAR-4 ovarian
NCI-H226 lung = system: NCI-H226 lung
M19-MEL melanoma = system: M19-MEL melanoma
HCT-116 colon = system: HCT-116 colon
OVCAR-8 ovarian = system: OVCAR-8 ovarian
UACC-257 melanoma = system: UACC-257 melanoma
SK-MEL-5 melanoma = system: SK-MEL-5 melanoma
CCRF-CEM leukemia = system: CCRF-CEM leukemia
UO-31 renal = system: UO-31 renal
M14 melanoma = system: M14 melanoma
SK-MEL-28 melanoma = system: SK-MEL-28 melanoma
K-562 leukemia = system: K-562 leukemia
HOP-62 NSCLC = system: HOP-62 NSCLC
SK-OV-3 ovarian = system: SK-OV-3 ovarian
EKVX NSCLC = system: EKVX NSCLC
SN12C renal = system: SN12C renal
MOLT-4 leukemia = system: MOLT-4 leukemia
HCT-15 colon = system: HCT-15 colon
SNB-19 CNS = system: SNB-19 CNS
NCI-H460 lung = system: NCI-H460 lung
SF-268 CNS = system: SF-268 CNS
A498 renal = system: A498 renal
KM20L2 colon = system: KM20L2 colon
U251 CNS = system: U251 CNS
DLD-1 colon = system: DLD-1 colon
LOX IMVI melanoma = system: LOX IMVI melanoma
OVCAR-5 ovarian = system: OVCAR-5 ovarian
SK-MEL-2 melanoma = system: SK-MEL-2 melanoma
SW-620 colon = system: SW-620 colon
NCI-H23 lung = system: NCI-H23 lung
HOP-92 NSCLC = system: HOP-92 NSCLC
OVCAR-3 ovarian = system: OVCAR-3 ovarian
SNB-75 CNS = system: SNB-75 CNS
786-0 renal = system: 786-0 renal
TK-10 renal = system: TK-10 renal
SF-539 CNS = system: SF-539 CNS
NCI-H522 lung = system: NCI-H522 lung
MDA-MB-231 breast = system: MDA-MB-231 breast
BT-549 breast = system: BT-549 breast
MDA-MB-435 = system: MDA-MB-435
NCI/ADR-RES ovarian = system: NCI/ADR-RES ovarian
HCC-2998 colon = system: HCC-2998 colon
MCF7 breast = system: MCF7 breast
SR leukemia = system: SR leukemia
PC-3 prostate = system: PC-3 prostate
DU-145 prostate = system: DU-145 prostate
HS 578T breast = system: HS 578T breast
MDA-N = system: MDA-N
ACHN renal = system: ACHN renal
T-47D breast = system: T-47D breast

CC(=O)[CH-]C(=O)c1ccccc1.CC(=O)[CH-]C(=O)c1ccccc1.CCCCCCCCCCCCCCCCCC(=O)[O-].CCCCCCCCCCCCCCCCCC(=O)[O-].[Ti+4]
GI50 (COLO 205 colon): 87.4 µM
TGI (COLO 205 colon): > 100 µM
GI50 (RXF 393 renal): 19.7 µM
TGI (RXF 393 renal): 33.9 µM
GI50 (CAKI-1 renal): 19.8 µM
TGI (CAKI-1 renal): 39.9 µM
GI50 (DMS 273 small cell lung): 20.1 µM
TGI (DMS 273 small cell lung): 38.7 µM
GI50 (UACC-62 melanoma): 18.7 µM
TGI (UACC-62 melanoma): 41.5 µM
GI50 (SF-295 CNS): 19.5 µM
TGI (SF-295 CNS): 34.3 µM
GI50 (LXFL 529 NSCLC): 18 µM
TGI (LXFL 529 NSCLC): 34.6 µM
GI50 (KM12 colon): 33.6 µM
TGI (KM12 colon): > 100 µM
GI50 (MALME-3M melanoma): 36.7 µM
TGI (MALME-3M melanoma): > 100 µM
GI50 (HT29 colon): 20.8 µM
TGI (HT29 colon): 44.9 µM
GI50 (A549 NSCLC): 19 µM
TGI (A549 NSCLC): 37.3 µM
GI50 (RPMI-8226 leukemia): 21.6 µM
TGI (RPMI-8226 leukemia): 55.4 µM
GI50 (IGROV1 ovarian): 34.9 µM
TGI (IGROV1 ovarian): > 100 µM
GI50 (HL-60(TB) leukemia): 19.3 µM
TGI (HL-60(TB) leukemia): 43.9 µM
GI50 (OVCAR-4 ovarian): 16.6 µM
TGI (OVCAR-4 ovarian): 31.8 µM
GI50 (NCI-H226 lung): 14.5 µM
TGI (NCI-H226 lung): 34.3 µM
GI50 (M19-MEL melanoma): 27.6 µM
TGI (M19-MEL melanoma): 97.9 µM
GI50 (HCT-116 colon): 18.3 µM
TGI (HCT-116 colon): 36.5 µM
GI50 (OVCAR-8 ovarian): 22.6 µM
TGI (OVCAR-8 ovarian): 48.3 µM
GI50 (UACC-257 melanoma): 24.6 µM
TGI (UACC-257 melanoma): 68.5 µM
GI50 (SK-MEL-5 melanoma): 21 µM
TGI (SK-MEL-5 melanoma): 48.2 µM
GI50 (CCRF-CEM leukemia): 23.2 µM
TGI (CCRF-CEM leukemia): 86.3 µM
GI50 (UO-31 renal): 13.8 µM
TGI (UO-31 renal): 26.7 µM
GI50 (M14 melanoma): 17.4 µM
TGI (M14 melanoma): 31.9 µM
GI50 (SK-MEL-28 melanoma): 23.7 µM
TGI (SK-MEL-28 melanoma): 60.5 µM
GI50 (K-562 leukemia): 22.3 µM
TGI (K-562 leukemia): 62.1 µM
GI50 (HOP-62 NSCLC): 30.7 µM
TGI (HOP-62 NSCLC): 90.9 µM
GI50 (SK-OV-3 ovarian): 21.9 µM
TGI (SK-OV-3 ovarian): 37.9 µM
GI50 (EKVX NSCLC): 74.2 µM
TGI (EKVX NSCLC): > 100 µM
GI50 (SN12C renal): 29.9 µM
TGI (SN12C renal): 73.5 µM
GI50 (MOLT-4 leukemia): 21.7 µM
TGI (MOLT-4 leukemia): 62 µM
GI50 (HCT-15 colon): 32.9 µM
TGI (HCT-15 colon): 69.6 µM
GI50 (SNB-19 CNS): 17.5 µM
TGI (SNB-19 CNS): 33.6 µM
GI50 (NCI-H460 lung): 30.7 µM
TGI (NCI-H460 lung): 95.7 µM
GI50 (SF-268 CNS): 21.6 µM
TGI (SF-268 CNS): 47.6 µM
GI50 (A498 renal): 25.7 µM
TGI (A498 renal): 68.5 µM
GI50 (KM20L2 colon): 33.9 µM
TGI (KM20L2 colon): > 100 µM
GI50 (U251 CNS): 20.3 µM
TGI (U251 CNS): 41.4 µM
GI50 (DLD-1 colon): 31.7 µM
TGI (DLD-1 colon): > 100 µM
GI50 (LOX IMVI melanoma): 18 µM
TGI (LOX IMVI melanoma): 35.9 µM
GI50 (OVCAR-5 ovarian): 36.7 µM
TGI (OVCAR-5 ovarian): > 100 µM
GI50 (SK-MEL-2 melanoma): 21.7 µM
TGI (SK-MEL-2 melanoma): 52.4 µM
GI50 (SW-620 colon): 33.3 µM
TGI (SW-620 colon): > 100 µM
GI50 (NCI-H23 lung): 36.1 µM
TGI (NCI-H23 lung): > 100 µM
GI50 (HOP-92 NSCLC): 17 µM
TGI (HOP-92 NSCLC): 33.9 µM
GI50 (OVCAR-3 ovarian): 18.9 µM
TGI (OVCAR-3 ovarian): 38 µM
GI50 (SNB-75 CNS): 11.7 µM
TGI (SNB-75 CNS): 25.5 µM
GI50 (786-0 renal): 18.8 µM
TGI (786-0 renal): 33.2 µM
GI50 (TK-10 renal): 34.8 µM
TGI (TK-10 renal): 99.1 µM
GI50 (SF-539 CNS): 17.2 µM
TGI (SF-539 CNS): 31.3 µM
GI50 (NCI-H522 lung): 23.1 µM
TGI (NCI-H522 lung): 62.4 µM

Nc1nc(Cl)cc(NCC2(CO)CC(CCc3ccccc3)C2)n1 (stereo unspecified)
TGI (COLO 205 colon): > 100 µM
TGI (RXF 393 renal): > 100 µM
TGI (CAKI-1 renal): > 100 µM
TGI (UACC-62 melanoma): > 100 µM
TGI (SF-295 CNS): > 100 µM
TGI (KM12 colon): > 100 µM
TGI (MALME-3M melanoma): > 100 µM
TGI (HT29 colon): > 100 µM
TGI (MDA-MB-231 breast): > 100 µM
TGI (A549 NSCLC): > 100 µM
TGI (RPMI-8226 leukemia): > 100 µM
TGI (BT-549 breast): > 100 µM
TGI (MDA-MB-435): > 100 µM
TGI (IGROV1 ovarian): > 100 µM
TGI (HL-60(TB) leukemia): > 94.2 µM
TGI (OVCAR-4 ovarian): > 100 µM
TGI (NCI-H226 lung): > 100 µM
TGI (HCT-116 colon): > 100 µM
TGI (OVCAR-8 ovarian): > 100 µM
TGI (UACC-257 melanoma): > 100 µM
TGI (SK-MEL-5 melanoma): > 38.1 µM
TGI (NCI/ADR-RES ovarian): > 100 µM
TGI (CCRF-CEM leukemia): > 100 µM
TGI (UO-31 renal): > 100 µM
TGI (M14 melanoma): > 100 µM
TGI (SK-MEL-28 melanoma): > 100 µM
TGI (HCC-2998 colon): > 100 µM
TGI (K-562 leukemia): > 100 µM
TGI (HOP-62 NSCLC): > 100 µM
TGI (SK-OV-3 ovarian): > 100 µM
TGI (EKVX NSCLC): > 100 µM
TGI (MCF7 breast): > 100 µM
TGI (SN12C renal): > 100 µM
TGI (SR leukemia): > 88.8 µM
TGI (PC-3 prostate): > 100 µM
TGI (MOLT-4 leukemia): > 100 µM
TGI (HCT-15 colon): > 100 µM
TGI (SNB-19 CNS): > 100 µM
TGI (NCI-H460 lung): > 100 µM
TGI (SF-268 CNS): > 100 µM
TGI (DU-145 prostate): > 100 µM
TGI (A498 renal): > 100 µM
TGI (U251 CNS): > 100 µM
TGI (HS 578T breast): > 100 µM
TGI (MDA-N): > 100 µM
TGI (LOX IMVI melanoma): > 100 µM
TGI (ACHN renal): > 100 µM
TGI (OVCAR-5 ovarian): > 100 µM
TGI (SK-MEL-2 melanoma): > 100 µM
TGI (T-47D breast): > 29.1 µM
TGI (SW-620 colon): > 100 µM
TGI (NCI-H23 lung): > 100 µM
TGI (HOP-92 NSCLC): > 100 µM
TGI (OVCAR-3 ovarian): > 100 µM
TGI (SNB-75 CNS): > 90.2 µM
TGI (786-0 renal): > 100 µM
TGI (TK-10 renal): > 100 µM
TGI (SF-539 CNS): > 100 µM
TGI (NCI-H522 lung): > 100 µM
